Measurements as given in patent US7049443B2, “Amide-containing compound having improved solubility and method of improving the solubility of an amide-containing compound” (Pharmacia & Upjohn Company, priority 2001, dated 2006).
“And” between values parts separate entries of the source, which are not always exact repeats. Equal values may be shown once.

Structure (SMILES) | melting point
O=C(NO)[C@H]1CN(c2ccc(N3CCOCC3)c(F)c2)C(=O)O1 [Example 440, (5R)-(−)-3-[3-Fluoro-4-(4-morpholinyl)phenyl]-N-hydroxy-2-oxo-5-oxazolidinecarboxamide] | 141 to 143 °C
NC(=O)[C@H]1CN(c2cc(F)c(N3CCS(=O)(=O)CC3)c(F)c2)C(=O)O1 [Example 449, (5R)-(−)-3-[4-(Thiomorpholin-4-yl)-3,5-difluorophenyl]-2-oxo-5-oxazolidinecarboxamide S,S-dioxide] | 245 to 248 °C (dec.)
NC(=O)[C@H]1CN(c2ccc(C3=CCS(=O)(=O)CC3)c(F)c2)C(=O)O1 [Example 446, (5R)-(−)-3-[4-(3,6-Dihydro-2H-thiopyran-4-yl)-3-fluorophenyl]-2-oxo-5-oxazolidinecarboxamide S,S-dioxide] | 206 to 208 °C
NC(=O)[C@H]1CN(c2ccc(-c3ccncc3)c(F)c2)C(=O)O1 [Example 442, (5R)-(−)-3-[4-(4-Pyridyl)-3-fluorophenyl]-2-oxo-5-oxazolidinecarboxamide] | 256 to 259 °C (dec.)
NC(=O)[C@H]1CN(c2ccc(N3CCN(C(=O)CO)CC3)c(F)c2)C(=O)O1 [Example 448, (5R)-(−)-3-[3-Fluoro-4-[4-(hydroxyacetyl)-1-piperazinyl]phenyl]-2-oxo-5-oxazolidinecarboxamide] | 232 to 235 °C (dec.)
NC(=O)[C@H]1CN(c2ccc(N3CCS(=O)(=O)CC3)cc2)C(=O)O1 [Example 452, (5R)-(−)-3-[4-(Thiomorpholin-4-yl)phenyl]-2-oxo-5-oxazolidinecarboxamide S,S-dioxide] | 226 to 228 °C
CONC(=O)[C@H]1CN(c2ccc(N3CCOCC3)c(F)c2)C(=O)O1 [Example 439, (5R)-(−)-3-[3-Fluoro-4-(4-morpholinyl)phenyl]-N-methoxy-2-oxo-5-oxazolidinecarboxamide] | 206 to 208 °C (dec.)
NC(=O)[C@H]1CN(c2ccc(C3CCS(=O)(=O)CC3)c(F)c2)C(=O)O1 [Example 447, (5R)-(−)-3-[4-(Tetrahydro-2H-thiopyran-4-yl)-3-fluorophenyl]-2-oxo-5-oxazolidinecarboxamide S,S-dioxide] | 231 to 234 °C (dec.) and 229 to 231 °C (dec.)
NC(=O)[C@H]1CN(c2ccc(C3CCS(=O)(=O)CC3)cc2)C(=O)O1 [Example 458, (5R)-(−)-3-[4-(tetrahydro-2H-thiopyran-4-yl)phenyl]-2-oxo-5-oxazolidinecarboxamide S,S-dioxide] | 211 to 212 °C
C=CCNC(=O)[C@H]1CN(c2ccc(N3CCOCC3)c(F)c2)C(=O)O1 [Example 437, (5R)-(−)-3-[3-Fluoro-4-(4-morpholinyl)phenyl]-N-allyl-2-oxo-5-oxazolidinecarboxamide] | 167 to 169 °C
NC(=O)[C@H]1CN(c2cc(F)c(N3CCOCC3)c(F)c2)C(=O)O1 [Example 451, (5R)-(−)-3-[3,5-Difluoro-4-(4-morpholinyl)phenyl]-2-oxo-5-oxazolidinecarboxamide] | 181 to 183 °C
CNC(=O)[C@H]1CN(c2ccc(N3CCOCC3)c(F)c2)C(=O)O1 [Example 436, (5R)-(−)-3-[3-Fluoro-4-(4-morpholinyl)phenyl]-N-methyl-2-oxo-5-oxazolidinecarboxamide] | 182 to 183 °C (dec.)
CCCNC(=O)[C@H]1CN(c2ccc(N3CCOCC3)c(F)c2)C(=O)O1 [Example 438, (5R)-(−)-3-[3-Fluoro-4-(4-morpholinyl)phenyl]-N-propyl-2-oxo-5-oxazolidinecarboxamide] | 165 to 167 °C
NC(=O)[C@H]1CN(c2ccc(-c3cccnc3)c(F)c2)C(=O)O1 [Example 441, (5R)-(−)-3-[4-(3-Pyridyl)-3-fluorophenyl]-2-oxo-5-oxazolidinecarboxamide] | 240 to 242 °C (dec.)

Now from value to molecule:

melting point | Structure (SMILES)
201 to 203 °C | NC(=O)[C@H]1CN(c2ccc([C@H]3CC[S@+]([O-])CC3)c(F)c2)C(=O)O1 [Example 457, (5R)-3-[3-Fluoro-4-(trans-tetrahydro-1-oxido-2H-thiopyran-4-yl)phenyl]-2-oxo-5-oxazolidinecarboxamide]
269 to 273 °C (dec.) | NC(=O)[C@H]1CN(c2ccc([C@H]3CC[S@@+]([O-])CC3)cc2)C(=O)O1 [Example 459, (5R)-3-[4-(cis-tetrahydro-1-oxido-2H-thiopyran-4-yl)phenyl]-2-oxo-S-oxazolidinecarboxamide]
153 to 156 °C | NC(=O)[C@H]1CN(c2ccc(C3CCOCC3)c(F)c2)C(=O)O1 [Example 444, (5R)-(−)-3-[4-(Tetrahydro-2H-pyran-4-yl)-3-fluorophenyl]-2-oxo-5-oxazolidinecarboxamide]
182 to 184 °C (dec.) | NC(=O)[C@H]1CN(c2ccc(C3=CC[S+]([O-])CC3)c(F)c2)C(=O)O1 (stereo partly drawn) [Example 445, (5R)-3-[4-(3,6-Dihydro-2H-thiopyran-4-yl)-3-fluorophenyl]-2-oxo-5-oxazolidinecarboxamide S-oxide]
174 to 175 °C | NC(=O)[C@H]1CN(c2ccc([C@H]3CC[S@+]([O-])CC3)cc2)C(=O)O1 (racemic) [Example 460, (SR)-3-[4-(trans-tetrahydro-1-oxido-2H-thiopyran-4-yl)phenyl]-2-oxo-5-oxazolidinecarboxamide]
164 to 169 °C | NC(=O)[C@H]1CN(c2ccc(C3=CCOCC3)c(F)c2)C(=O)O1 [Example 443, (5R)-(−)-3-[4-(3,6-Dihydro-2H-pyran-4-yl)-3-fluorophenyl]-2-oxo-5-oxazolidinecarboxamide]
273 to 276 °C (dec.) | NC(=O)[C@H]1CN(c2cc(F)c(N3CC[S+]([O-])CC3)c(F)c2)C(=O)O1 [Example 455, (5R)-(−)-3-[3,5-Difluoro-4-(thiomorpholin-4-yl)phenyl]-2-oxo-5-oxazolidinecarboxamide S-oxide]
245 to 247 °C (dec.) | NC(=O)[C@H]1CN(c2ccc(N3CCS(=O)(=O)CC3)c(F)c2)C(=O)O1 [Example 453, (5R)-(−)-3-[3-Fluoro-4-(thiomorpholin-4-yl)phenyl]-2-oxo-5-oxazolidinecarboxamide S,S-dioxide]
185 to 187 °C (dec.) | NC(=O)[C@H]1CN(c2ccc(N3CCOCC3)c(F)c2)C(=O)O1 [Example 435, (5R)-(−)-3-[3-Fluoro-4-(4-morpholinyl)phenyl]-2-oxo-5-oxazolidinecarboxamide]
279 to 281 °C (dec.) | NC(=O)[C@H]1CN(c2ccc([C@H]3CC[S@@+]([O-])CC3)c(F)c2)C(=O)O1 (racemic) [Example 456, (SR)-3-[3-Fluoro-4-(cis-tetrahydro-1-oxido-2H-thiopyran-4-yl)phenyl]-2-oxo-5-oxazolidinecarboxamide]
264 to 266 °C (dec.) | NC(=O)[C@H]1CN(c2ccc(N3CC[S+]([O-])CC3)c(F)c2)C(=O)O1 [Example 454, (5R)-(−)-3-[3-Fluoro-4-(thiomorpholin-4-yl)phenyl]-2-oxo-5-oxazolidinecarboxamide S-oxide]
